Reference: patent US12144820B2, “Dry powder formulations for inhalation” (VECTURA INC., priority 2016, dated 2024)
In brackets after ≈: the same amount, converted by molar mass. Like-named read-outs stand apart in the source and are kept apart here. One block for each compound: values may come before it.

What was measured:
Format in all cases: physicochemical
[1] = ASA in ethanol spray solution stability evaluation; details: for % ASA Purity / % SA: 9 wt % ASA in ethanol
Method: ASA degrades to salicylic acid (SA) as a function of time and temperature due to dissolution. Initial and cold 1 day solutions contained less than 0.5% SA.
9 wt % ASA was added to ethanol with constant stirring to stainless steel vessels. Samples were either stirred at ambient room temperature (approx. 22° C.) or 4° C. and sampled at 1, 3 and 6 days (Table 34).

[2] = ASA and L-leucine mixing solubility; details: for precipitation after mixing: 5 wt. % total solids, on the order of minutes
Method: The objective is to apply absolute solubility of ASA and L-Leu to a mixing study to determine if a spray drying approach is feasible. ASA and L-leucine was independently dissolved in preferred solvent: ASA in EtOH, and L-leucine in a sulfuric acid solution (pH 4.0) (which may increase L-leucine solubility in water). Proposed formulations were evaluated at a final total solids of 7 wt. % and 5 wt. %. In one embodiment, solvent ratio was 25/75 EtOH/Water. Precipitation of components was analyzed visually.

[3] = Anti-solvent evaluation of 5% w/w acetylsalicylic acid suspensions; details: 5% w/w suspension, room temperature
Method: After considering a number of factors in the end it was determined that only n-heptane and toluene fulfilled all the requirements, and therefore these were selected for further evaluation. Suspensions of acetylsalicylic acid at 5% w/w were prepared with the various anti-solvents, by charging the required amount of anti-solvent, charging the required amount of acetylsalicylic acid, and then stirring until a homogeneous suspension was obtained. The suspensions were qualitatively evaluated at room temperature and then filtered using a 0.45 μm membrane, which was then placed in an oven and dried at 60° C. until the solvent had completely evaporated. A quantitative analysis was performed on the residue that remained in the membrane by weighing the membrane before and after the test.

[4] = ASA and L-leucine absolute solubility in EtOH/water blends
Method: To define the absolute solubility of ASA and L-leucine in a variety of solvent blends, solvent blends were evaluated for solubility of ASA and L-leucine by visual confirmation. As used in this example, unless specified otherwise, leucine is L-leucine.

[5] = Potency and purity by RP-HPLC of aspirin/leucine formulations; details: before storage
Method: The properties of the ASA formulation were evaluated, including geometric particle size distribution (e.g., using laser diffraction such as the Malvern Dry Method); particle morphology (e.g., using scanning electron microscopy (SEM)); ID/Assay and purity (e.g., by HPLC); X-ray powder diffraction (XRPD); and aerosol properties by NGI.

[6] = Chemical stability of aspirin in ASA/Leucine formulations by RP-HPLC after storage; details: reference standard, no storage condition
Method: Chemical stability of aspirin in the formulations were tested by RP-HPLC before and after the formulations were exposed to various storage conditions.

% ASA Purity ([1]; Ambient Conditions, 1 Day): 98.0%
% SA ([1]; Ambient Conditions, 1 Day): 1.7%
% ASA Purity ([1]; Ambient Conditions, 3 Day): 90.5%
% SA ([1]; Ambient Conditions, 3 Day): 7.5%
% ASA Purity ([1]; Ambient Conditions, 6 Day): 90.5%
% SA ([1]; Ambient Conditions, 6 Day): 7.2%
% ASA Purity ([1]; Ambient Conditions, Initial): 99.9%
% SA ([1]; Ambient Conditions, Initial): 0.1%
% ASA Purity ([1]; Controlled 4° C., 1 Day): 99.1%
% SA ([1]; Controlled 4° C., 1 Day): 0.4%
% ASA Purity ([1]; Controlled 4° C., 3 Day): 97.5%
% SA ([1]; Controlled 4° C., 3 Day): 2.0%
% ASA Purity ([1]; Controlled 4° C., 6 Day): 96.7%
% SA ([1]; Controlled 4° C., 6 Day): 2.3%
% ASA Purity ([1]; Controlled 4° C., Initial): 99.9%
% SA ([1]; Controlled 4° C., Initial): 0%
SA content of spray solution ([1]; Initial and cold 1 day solutions): less than 0.5%
precipitation after mixing [2]: no evidence of precipitation
solubility behaviour in anti-solvent ([3]; n-heptane): phobic behavior
solubility behaviour in anti-solvent ([3]; toluene): partially soluble
ASA solubility ([4]; EtOH/Water 50/50 (v/v)): 7.5 wt. %
solubility ([4]; EtOH/Water 50/50 (v/v), aqueous with cosolvent or surfactant or cyclodextrin, read-out: ASA solubility): 72500 µg/mL (≈ 402 mM)
ASA solubility ([4]; EtOH/Water 75/25 (v/v)): 17.4 wt. %
solubility ([4]; EtOH/Water 75/25 (v/v), organic solvent or mixture, read-out: ASA solubility): 118000 µg/mL (≈ 653 mM)
ASA solubility ([4]; EtOH/Water 90/10 (v/v)): 21.4 wt. %
solubility ([4]; EtOH/Water 90/10 (v/v), organic solvent or mixture, read-out: ASA solubility): 220000 µg/mL (≈ 1220 mM)
ASA solubility ([4]; all solvent blends except 25/75 EtOH/water): up to 5 wt. % total solids
Structure (SMILES): CC(=O)Oc1ccccc1C(=O)O [acetylsalicylic acid]

ASA Purity [5]: 99.76 ± 0.11%
SA Purity [5]: 0.24 ± 0.11%
Structure (SMILES): CC(=O)Oc1ccccc1C(=O)O [ASA Standard]

ASA Purity (%) [6]: 99.76%
SA Impurity (%) [6]: 0.24%
Structure (SMILES): CC(=O)Oc1ccccc1C(=O)O [ASA Reference Standard]

precipitation after mixing [2]: no evidence of precipitation
time to precipitation out of solution ([2]; 7 wt. % solids, 85/15 ASA/L-leucine formulation, after mixing): approximately 60 seconds
solubility ([4]; Neutral, EtOH/Water 0/100 (v/v), read-out: L-Leucine solubility): 10000 µg/mL (≈ 76.2 mM)
L-Leucine solubility ([4]; Neutral, EtOH/Water 25/75 (v/v)): 0.04 wt. %
L-Leucine solubility ([4]; Neutral, EtOH/Water 50/50 (v/v)): 0.03 wt. %
L-Leucine solubility ([4]; Neutral, EtOH/Water 75/25 (v/v)): 0.02 wt. %
L-Leucine solubility ([4]; Neutral, EtOH/Water 90/10 (v/v)): Insouble
solubility ([4]; aqueous buffer, pH 3, EtOH/Water 0/100 (v/v), read-out: L-Leucine solubility): 17000 µg/mL (≈ 130 mM)
solubility ([4]; aqueous with cosolvent or surfactant or cyclodextrin, Neutral, EtOH/Water 10/90 (v/v), read-out: L-Leucine solubility): 9000 µg/mL (≈ 68.6 mM)
solubility ([4]; aqueous with cosolvent or surfactant or cyclodextrin, Neutral, EtOH/Water 25/75 (v/v), read-out: L-Leucine solubility): 400 µg/mL (≈ 3.05 mM)
solubility ([4]; aqueous with cosolvent or surfactant or cyclodextrin, Neutral, EtOH/Water 50/50 (v/v), read-out: L-Leucine solubility): 300 µg/mL (≈ 2.29 mM)
solubility ([4]; aqueous with cosolvent or surfactant or cyclodextrin, pH 3, EtOH/Water 10/90 (v/v), read-out: L-Leucine solubility): 11000 µg/mL (≈ 83.9 mM)
solubility ([4]; aqueous with cosolvent or surfactant or cyclodextrin, pH 3, EtOH/Water 50/50 (v/v), read-out: L-Leucine solubility): 1000 µg/mL (≈ 7.62 mM)
solubility ([4]; organic solvent or mixture, Neutral, EtOH/Water 75/25 (v/v), read-out: L-Leucine solubility): 200 µg/mL (≈ 1.52 mM)
L-Leucine solubility ([4]; pH 3, EtOH/Water 0/100 (v/v)): 1.7 wt. %
L-Leucine solubility ([4]; pH 3, EtOH/Water 10/90 (v/v)): 1.0 wt. %
L-Leucine solubility ([4]; pH 3, EtOH/Water 50/50 (v/v)): 0.1 wt. %
Structure (SMILES): CC(C)C[C@H](N)C(=O)O [L-Leucine, L-leucine]
